{"source": "patent US20180224430A1", "about": "“Method of Estimating the Incidence of In Vivo Reactions to Chemical or Biological Agents Using In Vitro Experiments” (Coyne Scientific, LLC, priority 2015, published 2018)", "key": {"[1]": {"system": "cardiomyocytes derived from stem cells (differentiated induced pluripotent stem cells)", "test": "In vitro assay with Endpoint A (causally associated with cardiomyopathy) on stem-cell-derived cardiomyocytes from 100 donors", "assay_type": "cell-based, human", "procedure": "An in vitro assay is then identified whose endpoint—referred to herein as Endpoint A—includes one that is causally associated with one of the cardiotoxic effects of doxorubicin: cardiomyopathy. Concentrations of doxorubicin as prescribed by the in vitro assay's protocol are prepared in a concentration that corresponds to doses of 500 mg and 600 mg administered in vivo.\nIn vitro tests are conducted at these concentrations on a representative sample of cardiomyocytes derived from stem cells (the cardiomyocytes are differentiated induced pluripotent stem cells) originating from a sample of 100 donors, and then the donors are arrayed in order of ascending scores on Endpoint A.\nThe “Reaction Threshold Prediction Model” is selected as the mathematical transform in their procedure. It is noted from the doxorubicin clinical cardiotoxicity data mentioned above that 12% of the clinical trial participants experienced cardiomyopathy when treated at the 500 mg dose level. Using the in vitro test results above, the Endpoint A score is determined that is associated with the 88th Percentile member of the in vitro cohort of 100 donors (88 representing 100% minus the 12% of the sample in vivo who experienced cardiomyopathy following treatment with a 500 mg dose). The Endpoint A score reads 70 units.\nNext, the in vitro assay of doxorubicin is repeated, with a concentration corresponding to a 600 mg dose administered in vivo, on a representative sample of cardiomyocytes derived from stem cells originating from a sample of 100 donors, and then the donors are arrayed in order of ascending scores on Endpoint A. This time, the Endpoint A score is detected for the donor at the 76th Percentile (76 representing 100% minus the […] of the sample in vivo who experienced cardiomyopathy following treatment with a 600 mg dose). This time, the Endpoint A score reads 65 units. […]"}, "[2]": {"conditions": "cited from earlier work"}}}
{"smiles": "COc1cccc2c1C(=O)c1c(O)c3c(c(O)c1C2=O)C[C@@](O)(C(=O)CO)C[C@@H]3O[C@H]1C[C@H](N)[C@H](O)[C@H](C)O1", "note": "[doxorubicin]", "values": [{"measurement": "Endpoint A score", "setting": "[1]; concentration corresponding to 500 mg dose, 88th percentile member of 100 donors", "result": 70, "unit": "units"}, {"measurement": "Endpoint A score", "setting": "[1]; concentration corresponding to 600 mg dose, donor at 76th percentile of 100 donors", "result": 65, "unit": "units"}, {"measurement": "Endpoint A score approximating threshold of impact (presumed toxicity threshold)", "setting": "[1]; leads to incidences of cardiomyopathy in the range of 10 to 25 percent", "result": "65-70"}, {"measurement": "clinical trial participants who experienced cardiomyopathy", "setting": "[2]; 500 mg dose level", "result": 12, "unit": "%"}, {"measurement": "sample in vivo who experienced cardiomyopathy", "setting": "[2]; 600 mg dose", "result": 23, "unit": "%"}]}
